Counter-ions that a name gives are not always drawn.

The results in this text go back to patent US5602161A, “Tetrazolylphenyl pivalate derivatives and medicinal composition containing the same as effective component” (Wakamoto Pharmaceutical Co., Ltd., priority 1994, dated 1997).

The target in the experiment is T1, human sputum elastase (Homo sapiens, UniProt P08246).
T1 sequence (P08246 30-247 limits assumed): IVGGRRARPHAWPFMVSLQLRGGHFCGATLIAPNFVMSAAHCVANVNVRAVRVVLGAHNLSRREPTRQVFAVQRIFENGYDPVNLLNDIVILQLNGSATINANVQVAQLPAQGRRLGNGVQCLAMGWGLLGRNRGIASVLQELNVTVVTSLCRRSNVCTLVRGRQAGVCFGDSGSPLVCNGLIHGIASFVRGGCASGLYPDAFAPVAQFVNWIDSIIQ
Description: Inhibitory effect on elastase (human sputum), spectrophotometric assay with MeOSuc-Ala-Ala-Pro-Val-pNA. Conditions: S: human sputum elastase; pH 8.0, 37° C.; read-out: IC50. It counts as biochemical.
Description: Namely, it is a spectrophotometric assay using the synthesized substrate, methoxysuccinyl-alanyl-alanyl- prolyl-valyl-p-nitroanilide(MeOSuc-Ala-Ala-Pro-Val-pNA, Cambridge research biochemical Co.) which has high specificity on neutrophil elastase.
20 μl of a test compound of various concentrations and 20 μl of enzyme solution (13 unit/ml) were added to 400 μl of 0.1M sodium phosphate buffer (pH 8.0). The mixture was incubated at 37° C. for 5 min, and then 20 μl of the substrate was added to the mixture in a final volume of 460 μl. The reaction was conducted by incubating thus obtained mixture at 37° C. for 20 min. The reaction was stopped by the addition of 300 μl of 20% acetic acid into the reaction mixture, and then p-nitroanilide released was measured by the spectrophotometrically at 405 nm.
Inhibition percents of the test compounds were calculated by the following equation:
Inhibition %=[1-(OD 405 nm value of the testing sample-background)/(OD 405 nm value of the control-background)]×100
Broadly, the IC50 is the concentration needed to halve the response being measured. On to `Cc1cc(-c2nnn(Cc3ccc(C(=O)O)cc3)n2)ccc1OC(=O)C(C)(C)C` [Example 55, 4-[5-(3-Methyl-4-pivaloyloxyphenyl)tetrazol-2-ylmethyl]benzoic acid], for which the IC50 was determined as 1000 nM.

`CC(C)(C)C(=O)Oc1ccc(-c2nnn(Cc3cccc([N+](=O)[O-])c3)n2)cc1` [Example 26, 4-[2-(3-Nitrobenzyl)tetrazol-5-yl]phenyl pivalate]: the IC50 stood at 270 nM.

As to `CC(C)(C)C(=O)Oc1ccc(-c2nnn(Cc3ccc(C(=O)N[C@@H](Cc4ccccc4)C(=O)O)cc3)n2)cc1`, the IC50 was 58 nM.

For the compound `CC(C)(C)C(=O)Oc1ccc(-c2nnn(Cc3cccc(OCCN)c3)n2)cc1` [Example 85, 4-[2-[3-(2-Aminoethoxy)benzyl]tetrazol-5-yl]phenyl pivalate Hydrochloride], the half-inhibitory concentration (IC50) stood at 77 nM.

`CC(C)(C)C(=O)Oc1ccc(-c2nnn(Cc3ccccc3OCC(=O)O)n2)cc1` [Example 81, 2-[5-(4-Pivaloyloxyphenyl)tetrazol-2-ylmethyl]phenoxyacetic acid]: the IC50 amounted to 59 nM.

For `CC(C)(C)C(=O)Oc1ccc(-c2nnn(Cc3ccc(C(=O)NCCCCCC(=O)O)cc3)n2)cc1` [Example 68, 6-[N-[4-[5-(4-Pivaloyloxyphenyl)tetrazol-2-ylmethyl]benzoyl]amino]caproic acid], the IC50 worked out at 200 nM.

`COc1cc(-c2nnn(Cc3ccc(C(=O)O)cc3)n2)ccc1OC(=O)C(C)(C)C` [Example 56, 4-[5-(3-Methoxy-4-pivaloyloxyphenyl)tetrazol-2-ylmethyl]benzoic acid]: the 50% inhibitory concentration (IC50) came to 420 nM.

`CC(C)(C)C(=O)Oc1ccc(-c2nnn(Cc3ccccc3C(=O)O)n2)cc1` [Example 52, 2-[5-(4-Pivaloyloxyphenyl)tetrazol-2-ylmethyl]benzoic acid]: the IC50 amounted to 350 nM.

Turning to `CC(C)(C)OC(=O)COc1ccccc1Cn1nnc(-c2ccc(OC(=O)C(C)(C)C)cc2)n1` [Example 30, t-Butyl 2-[5-(4-pivaloyloxyphenyl)tetrazol-2-ylmethyl]phenoxyacetate], the IC50 came out at 380 nM.

For `CC(C)(C)OC(=O)NCCn1nnc(-c2ccc(OC(=O)C(C)(C)C)cc2)n1` [Example 45, 4-[2-[2-(t-Butoxycarbonylamino)ethyl]tetrazol-5-yl]phenyl pivalate], the IC50 worked out at 130 nM.

Consider `CC(C)(C)C(=O)Oc1ccc(-c2nnn(C(c3ccccc3)c3ccccc3)n2)cc1` [Example 28, 4-[2-(Diphenylmethyl)tetrazol-5-yl]phenyl pivalate], for which the IC50 amounted to 220 nM.

Take `CC(C)(C)C(=O)Oc1ccc(-c2nnn(Cc3cccc(N)c3)n2)cc1` [Example 77, 4-[2-(3-Aminobenzyl)tetrazol-5-yl]phenyl pivalate]: the IC50 is 150 nM.

`CN(C(=O)OC(C)(C)C)c1ccc(Cn2nnc(-c3ccc(OC(=O)C(C)(C)C)cc3)n2)cc1` [Example 39, 4-[2-[4-(N-t-Butoxycarbonyl-N-methylamino)benzyl]tetrazol-5-yl]phenyl pivalate]: the IC50 worked out at 80 nM.

For the compound `CC(C)(C)C(=O)Oc1ccc(-c2nnn(Cc3ccc(C(=O)NCCN)cc3)n2)cc1` [Example 71, N-(2-Aminoethyl)-4-[5-(4-pivaloyloxyphenyl)tetrazol-2-ylmethyl]benzamide Hydrochloride], the IC50 came out at 260 nM.

Turning to `CC(C)c1ccc(Cn2nnnc2-c2ccc(OC(=O)C(C)(C)C)cc2)cc1` [Example 96, 4-[1-(4-Isopropylbenzyl)tetrazol-5-yl]phenyl pivalate], the half-inhibitory concentration (IC50) stood at 140 nM.

`CC(C)(C)C(=O)Oc1ccc(-c2nnn(Cc3ccccc3[N+](=O)[O-])n2)cc1` [Example 27, 4-[2-(2-Nitrobenzyl)tetrazol-5-yl]phenyl pivalate]: the IC50 turned out to be 90 nM.

For the compound `CC(C)(C)C(=O)Oc1ccc(-c2nnn(CCN)n2)cc1` [Example 92, 4-[2-(2-Aminoethyl)tetrazol-5-yl]phenyl pivalate Hydrochloride], the IC50 came out at 1600 nM.

Take `COc1ccc(COCCCCCn2nnc(-c3ccc(OC(=O)C(C)(C)C)cc3)n2)cc1` [Example 43, 4-[2-[5-(4-Methoxybenzyloxy)pentyl]tetrazol-5-yl]phenyl pivalate]: the 50% inhibitory concentration (IC50) was 130 nM.

Turning to `CSCCC(NC(=O)c1ccc(Cn2nnc(-c3ccc(OC(=O)C(C)(C)C)cc3)n2)cc1)C(=O)O` (racemic) [Example 62, N-[4-[5-(4-Pivaloyloxyphenyl)tetrazol-2-ylmethyl]benzoyl]-DL-methionine], the IC50 was 79 nM.

On to `CC(C)(C)C(=O)Oc1ccc(-c2nnn(Cc3ccc(OCC(=O)O)cc3)n2)cc1` [Example 83, 4-[5-(4-Pivaloyloxyphenyl)tetrazol-2-ylmethyl]phenoxyacetic acid], for which the concentration for half-maximal inhibition (IC50) amounted to 84 nM.

As to `CC(C)(C)C(=O)Oc1ccc(-c2nnn(Cc3ccc(OCCN)cc3)n2)cc1` [Example 86, 4-[2-[4-(2-Aminoethoxy)benzyl]tetrazol-5-yl]phenyl pivalate Hydrochloride], the IC50 stood at 80 nM.

Turning to `CN(C)CCn1nnc(-c2ccc(OC(=O)C(C)(C)C)cc2)n1` [Example 38, 4-[2-(2-Dimethylaminoethyl)tetrazol-5-yl]phenyl pivalate Hydrochloride], the IC50 was 800 nM.

With `C[C@H](NC(=O)c1ccc(Cn2nnc(-c3ccc(OC(=O)C(C)(C)C)cc3)n2)cc1)C(=O)O` [Example 57, N-[4-[5-(4-Pivaloyloxyphenyl)tetrazol-2-ylmethyl]benzoyl]-L-alanine], the IC50 worked out at 420 nM.

In the case of `CCN(C)c1ccc(Cn2nnc(-c3ccc(OC(=O)C(C)(C)C)cc3)n2)cc1` [Example 97, 4-[2-[4-(Ethylmethylamino)benzyl]tetrazol-5-yl]phenyl pivalate], the IC50 amounted to 150 nM.

For the compound `CN(C)c1ccc(Cn2nnnc2-c2ccc(OC(=O)C(C)(C)C)cc2)cc1` [Example 99, 4-[1-[4-(Dimethylamino)benzyl]tetrazol-5-yl]phenyl pivalate], the IC50 amounted to 340 nM.

On to `CC(C)(C)C(=O)Oc1ccc(-c2nnn(Cc3ccc(NC(=O)CN)cc3)n2)cc1` [Example 87, 4-[2-[4-(Glycylamino)benzyl]tetrazol-5-yl]phenyl pivalate Hydrochloride], for which the IC50 came to 58 nM.

`CN(C)c1cc(-c2nnn(Cc3ccc(C(=O)O)cc3)n2)ccc1OC(=O)C(C)(C)C` [Example 8, 4-[5-(3-Dimethylamino-4-pivaloyloxyphenyl)tetrazol-2-ylmethyl]benzoic acid]: the IC50 stood at 230 nM.

`CC(C)(C)C(=O)Oc1ccc(-c2nnn[nH]2)cc1` [Example 3, 4-(1H-Tetrazol-5-yl)phenyl pivalate]: the IC50 was determined as 2000 nM.

In the case of `CC(C)(C)C(=O)Oc1ccc(-c2nnn(Cc3cccc(OCC(=O)O)c3)n2)cc1` [Example 82, 3-[5-(4-Pivaloyloxyphenyl)tetrazol-2-ylmethyl]phenoxyacetic acid], the IC50 was 92 nM.

As to `CC(C)(C)C(=O)Oc1ccc(-c2nnn(Cc3cccc(CCCN)c3)n2)cc1` [Example 89, 4-[2-[3-(3-Aminopropyl)benzyl]tetrazol-5-yl]phenyl pivalate Hydrochloride], the IC50 turned out to be 170 nM.

As to `CC(C)(C)C(=O)Oc1ccc(-c2nnn(C(C)(C)C)n2)cc1` [Example 36, 4-[2-(1,1-Dimethylethyl)tetrazol-5-yl]phenyl pivalate], the IC50 came to 800 nM.

With `CC(C)(C)C(=O)Oc1ccc(-c2nnn(Cc3ccc(CC(=O)O)cc3)n2)cc1` [Example 53, 4-[5-(4-Pivaloyloxyphenyl)tetrazol-2-ylmethyl]phenylacetic acid], the IC50 is 110 nM.

Take `CNc1ccc(Cn2nnc(-c3ccc(OC(=O)C(C)(C)C)cc3)n2)cc1` [Example 90, 4-[2-(4-Methylaminobenzyl)tetrazol-5-yl]phenyl pivalate]: the IC50 worked out at 110 nM.

For the compound `CNc1ccc(Cn2nnnc2-c2ccc(OC(=O)C(C)(C)C)cc2)cc1` [Example 91, 4-[1-(4-Methylaminobenzyl)tetrazol-5-yl]phenyl pivalate], the half-inhibitory concentration (IC50) is 580 nM.

With `CC(C)(C)OC(=O)Cn1nnc(-c2ccc(OC(=O)C(C)(C)C)cc2)n1` [Example 10, 4-[2-(t-Butoxycarbonylmethyl)tetrazol-5-yl]phenyl pivalate], the IC50 stood at 800 nM.

For `CC(C)(C)C(=O)Oc1ccc(-c2nnn(C(C(=O)NCC(=O)O)c3ccccc3)n2)cc1` (stereo not shown) [Example 70, N-[2-Phenyl-2-[5-(4-pivaloyloxyphenyl)tetrazol-2-yl]acetyl]glycine], the half-inhibitory concentration (IC50) stood at 1000 nM.

In the case of `CCCN(C)c1ccc(Cn2nnc(-c3ccc(OC(=O)C(C)(C)C)cc3)n2)cc1` [Example 98, 4-[2-[4-(Methylpropylamino)benzyl]tetrazol-5-yl]phenyl pivalate], the half-inhibitory concentration (IC50) turned out to be 150 nM.

For the compound `CC(C)(C)C(=O)Oc1ccc(-c2nnn(Cc3ccc([N+](=O)[O-])cc3)n2)cc1` [Example 25, 4-[2-(4-Nitrobenzyl)tetrazol-5-yl]phenyl pivalate], the IC50 was determined as 280 nM.

Regarding `CC(=O)c1ccc(Cn2nnc(-c3ccc(OC(=O)C(C)(C)C)cc3)n2)cc1` [Example 29, 4-[2-(4-Acetylbenzyl)tetrazol-5-yl]phenyl pivalate], the IC50 amounted to 100 nM.

In the case of `CC(C)(C)C(=O)Oc1ccc(-c2nnn(Cc3ccc(C(=O)NCC(=O)O)cc3)n2)cc1` [Example 58, N-[4-[5-(4-pivaloyloxyphenyl)tetrazol-2-ylmethyl]benzoyl]glycine], the IC50 came out at 29 nM.

With `CC(C)(C)C(=O)Oc1ccc(-c2nnn(Cc3ccc(C(=O)N[C@@H](CCC(=O)O)C(=O)O)cc3)n2)cc1` [Example 61, N-[4-[5-(4-Pivaloyloxyphenyl)tetrazol-2-ylmethyl]benzoyl]-L-glutamic acid], the IC50 was found to be 30 nM.

Turning to `CN(C)c1ccccc1Cn1nnc(-c2ccc(OC(=O)C(C)(C)C)cc2)n1` [Example 101, 4-[2-[2-(Dimethylamino)benzyl]tetrazol-5-yl]phenyl pivalate], the IC50 turned out to be 380 nM.

Take `CC(C)(C)C(=O)Oc1ccc(-c2nnn(Cc3ccc(N)cc3)n2)cc1` [Example 76, 4-[2-(4-Aminobenzyl)tetrazol-5-yl]phenyl pivalate]: the IC50 turned out to be 180 nM.
